Source: ChEMBL document CHEMBL1909046, “DrugMatrix in vitro pharmacology data”
pIC50, pKi: −log10 of the molar value.

Assays:
[1] = target: Tyrosine-protein kinase Fyn (Homo sapiens, UniProt P06241); experiment: biochemical; assay type: cell-based, Insect cells; conditions: insect cells;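 note: enzymatic inhibition of Fyn kinase activity measured with Poly(Glu:Tyr) as the phosphorylation substrate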
Calcitonin receptor = target: T1, Calcitonin receptor (Homo sapiens, UniProt P30988); assay type: cell membranes, Membrane; conditions: t47d
T1 sequence (P30988 whole entry): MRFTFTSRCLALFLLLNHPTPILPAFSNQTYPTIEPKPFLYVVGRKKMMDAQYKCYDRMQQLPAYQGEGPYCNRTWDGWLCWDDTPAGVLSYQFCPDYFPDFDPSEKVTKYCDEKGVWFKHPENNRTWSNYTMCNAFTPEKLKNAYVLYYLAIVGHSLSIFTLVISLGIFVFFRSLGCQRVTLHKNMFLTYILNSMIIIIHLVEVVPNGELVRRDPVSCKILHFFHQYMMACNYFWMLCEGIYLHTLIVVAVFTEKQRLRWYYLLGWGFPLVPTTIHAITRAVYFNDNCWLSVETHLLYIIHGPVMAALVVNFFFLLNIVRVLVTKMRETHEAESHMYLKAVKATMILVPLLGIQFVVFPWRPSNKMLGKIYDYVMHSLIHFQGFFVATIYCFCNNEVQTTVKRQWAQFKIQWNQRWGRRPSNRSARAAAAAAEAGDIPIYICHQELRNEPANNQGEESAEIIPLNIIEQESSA

[2] = target: T2, Muscarinic acetylcholine receptor M4 (Homo sapiens, UniProt P08173); assay type: cell membranes, CHO-K1, Membrane; conditions: for pIC50: read-out: IC50; for pKi: read-out: Ki
T2 sequence (P08173 whole entry): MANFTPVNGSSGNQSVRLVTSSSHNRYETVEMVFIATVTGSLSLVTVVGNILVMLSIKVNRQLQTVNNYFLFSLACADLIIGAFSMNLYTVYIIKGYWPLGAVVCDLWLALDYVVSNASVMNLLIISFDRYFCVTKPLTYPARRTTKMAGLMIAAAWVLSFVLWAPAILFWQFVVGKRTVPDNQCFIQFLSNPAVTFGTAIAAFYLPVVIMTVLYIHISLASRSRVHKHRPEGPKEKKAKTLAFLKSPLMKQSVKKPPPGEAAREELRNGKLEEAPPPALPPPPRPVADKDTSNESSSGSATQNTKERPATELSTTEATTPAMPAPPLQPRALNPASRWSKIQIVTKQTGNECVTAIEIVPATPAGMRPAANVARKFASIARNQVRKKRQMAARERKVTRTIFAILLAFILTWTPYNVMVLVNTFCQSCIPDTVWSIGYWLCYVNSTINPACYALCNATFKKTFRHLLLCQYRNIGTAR

[3] = target: Matrix metalloproteinase-9 (Homo sapiens, UniProt P14780); assay type: cell-based;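 note: inhibition of isolated MMP-9 enzyme activity toward a synthetic peptide substrate, from the DrugMatrix protease screening panel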
Chain of Matrix metalloproteinase-9 (P14780 whole entry): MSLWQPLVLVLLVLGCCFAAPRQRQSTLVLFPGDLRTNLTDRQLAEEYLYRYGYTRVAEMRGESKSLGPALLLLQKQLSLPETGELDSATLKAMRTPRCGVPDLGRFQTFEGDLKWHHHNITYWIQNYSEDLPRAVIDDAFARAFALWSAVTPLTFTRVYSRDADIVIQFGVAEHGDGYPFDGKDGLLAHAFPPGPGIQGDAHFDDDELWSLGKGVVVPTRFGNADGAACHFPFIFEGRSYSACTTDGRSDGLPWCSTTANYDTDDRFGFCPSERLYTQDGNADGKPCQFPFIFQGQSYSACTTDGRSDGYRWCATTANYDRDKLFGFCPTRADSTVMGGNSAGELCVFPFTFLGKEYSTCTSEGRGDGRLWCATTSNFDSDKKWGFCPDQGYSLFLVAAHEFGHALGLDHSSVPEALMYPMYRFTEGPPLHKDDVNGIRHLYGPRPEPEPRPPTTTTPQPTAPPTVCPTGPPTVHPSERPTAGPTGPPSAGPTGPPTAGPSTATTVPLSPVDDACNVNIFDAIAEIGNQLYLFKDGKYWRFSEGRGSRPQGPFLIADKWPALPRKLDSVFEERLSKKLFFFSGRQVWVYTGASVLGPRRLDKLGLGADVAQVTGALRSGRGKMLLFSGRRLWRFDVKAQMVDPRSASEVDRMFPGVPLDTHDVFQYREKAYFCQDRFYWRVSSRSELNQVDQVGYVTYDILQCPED

Melanocortin receptor 5 = Melanocortin receptor 5 (Homo sapiens, UniProt P33032); assay type: cell membranes, HEK293, Membrane; conditions: hek293
Chain of Melanocortin receptor 5 (P33032 whole entry): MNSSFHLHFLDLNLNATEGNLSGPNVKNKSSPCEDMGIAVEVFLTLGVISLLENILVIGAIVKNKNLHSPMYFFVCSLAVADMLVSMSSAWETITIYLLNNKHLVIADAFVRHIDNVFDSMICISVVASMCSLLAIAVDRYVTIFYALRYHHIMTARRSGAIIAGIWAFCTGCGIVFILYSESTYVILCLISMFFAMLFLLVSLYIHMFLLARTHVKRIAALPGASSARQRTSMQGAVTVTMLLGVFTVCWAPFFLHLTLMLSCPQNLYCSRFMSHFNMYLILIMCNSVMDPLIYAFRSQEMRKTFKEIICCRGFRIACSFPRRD

Caspase-1 = target: T3, Caspase-1 (Homo sapiens, UniProt P29466); set-up: species or system Escherichia coli;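 note: Caspase-1 enzyme inhibition assay with a peptide substrate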
T3 sequence (P29466 whole entry): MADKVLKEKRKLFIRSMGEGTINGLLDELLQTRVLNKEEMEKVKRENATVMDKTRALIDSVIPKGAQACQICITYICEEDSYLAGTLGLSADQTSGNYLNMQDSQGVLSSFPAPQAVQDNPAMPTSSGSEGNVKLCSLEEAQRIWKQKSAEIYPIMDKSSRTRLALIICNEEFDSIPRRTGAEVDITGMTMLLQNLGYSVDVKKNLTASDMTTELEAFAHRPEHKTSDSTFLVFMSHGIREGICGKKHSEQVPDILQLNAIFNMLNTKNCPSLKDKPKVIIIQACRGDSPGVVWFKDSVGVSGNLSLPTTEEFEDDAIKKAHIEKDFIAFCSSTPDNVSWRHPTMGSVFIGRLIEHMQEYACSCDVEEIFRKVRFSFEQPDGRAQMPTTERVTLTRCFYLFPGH

Leukotriene C4 synthase = target: T4, Leukotriene C4 synthase (Cavia porcellus, UniProt A6XA80); assay type: tissue-based, Lung;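 note: enzyme inhibition assay of leukotriene C4 synthase, using LTA4 as the substrate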
T4 sequence (A6XA80 whole entry): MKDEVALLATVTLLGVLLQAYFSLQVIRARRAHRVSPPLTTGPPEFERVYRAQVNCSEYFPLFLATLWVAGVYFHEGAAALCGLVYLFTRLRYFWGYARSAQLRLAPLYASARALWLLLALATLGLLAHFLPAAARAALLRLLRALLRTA
Note: in other assays of this panel Not Active means under 50% inhibition at 10 µM.

Chain of Tyrosine-protein kinase Fyn (P06241 whole entry): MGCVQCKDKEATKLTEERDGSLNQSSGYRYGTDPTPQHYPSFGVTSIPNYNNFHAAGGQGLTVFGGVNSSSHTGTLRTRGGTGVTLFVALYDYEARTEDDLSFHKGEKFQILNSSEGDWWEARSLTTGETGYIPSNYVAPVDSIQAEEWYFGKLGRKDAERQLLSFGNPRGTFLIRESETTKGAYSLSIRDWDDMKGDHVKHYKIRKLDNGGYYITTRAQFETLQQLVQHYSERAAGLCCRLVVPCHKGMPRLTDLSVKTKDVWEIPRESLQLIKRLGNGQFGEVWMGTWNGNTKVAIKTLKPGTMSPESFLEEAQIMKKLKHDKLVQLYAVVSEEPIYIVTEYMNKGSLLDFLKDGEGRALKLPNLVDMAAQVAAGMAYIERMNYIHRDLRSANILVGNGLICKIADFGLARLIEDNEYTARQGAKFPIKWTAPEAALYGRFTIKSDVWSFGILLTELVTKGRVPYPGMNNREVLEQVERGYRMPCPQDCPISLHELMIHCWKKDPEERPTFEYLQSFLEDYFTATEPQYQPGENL

| Molecule | IC50 [1] | IC50 (Calcitonin receptor) | IC50 ([2]; cho-k1) | IC50 [3] | IC50 (Melanocortin receptor 5) | IC50 (Caspase-1) | IC50 (Leukotriene C4 synthase) | pIC50 [2] | pKi [2] | Ki [1] | Ki (Calcitonin receptor) | Ki ([2]; cho-k1) | Ki [3] | Ki (Melanocortin receptor 5) | Ki (Caspase-1) | Ki (Leukotriene C4 synthase) |
| --- | --- | --- | --- | --- | --- | --- | --- | --- | --- | --- | --- | --- | --- | --- | --- | --- |
| C[C@H]1COc2c(N3CCN(C)CC3)c(F)cc3c(=O)c(C(=O)O)cn1c23.C[C@H]1COc2c(N3CCN(C)CC3)c(F)cc3c(=O)c(C(=O)O)cn1c23.O [LEVOFLOXACIN] | Not Active | Not Active | Not Active | Not Active | Not Active | Not Active | Not Active |  |  |  |  |  |  |  |  |  |
| CCn1cc(C(=O)O)c(=O)c2cc(F)c(N3CCNC(C)C3)c(F)c21 (configuration not stated) [LOMEFLOXACIN] | Not Active | Not Active | Not Active | Not Active | Not Active | Not Active | Not Active |  |  |  |  |  |  |  |  |  |
| CN1CCCC(CN2c3ccccc3Sc3ccccc32)C1 (configuration not stated) [MEPAZINE] | Not Active | Not Active |  | Not Active | Not Active | Not Active | Not Active | 6.86 | 7.72 |  |  |  |  |  |  |  |
| Cc1cccc(C)c1NC(=O)C1CCCCN1C (configuration not stated) [MEPIVACAINE] | Not Active | Not Active | Not Active | Not Active | Not Active | Not Active | Not Active |  |  |  |  |  |  |  |  |  |
| CN(C)C(=N)NC(=N)N [METFORMIN] | Not Active | Not Active | Not Active | Not Active | Not Active | Not Active | Not Active |  |  |  |  |  |  |  |  |  |
| CC(C)(C)NCC(O)COc1cccc2c1CC(O)C(O)C2 (configuration not stated) [NADOLOL] | Not Active | Not Active | Not Active | Not Active | Not Active | Not Active | Not Active |  |  |  |  |  |  |  |  |  |
| C[C@]12CC[C@H]3[C@@H](CCC4=CC(=O)CC[C@@H]43)[C@@H]1CC[C@@H]2O [NANDROLONE] | Not Active | Not Active | Not Active | Not Active | Not Active | Not Active | Not Active |  |  |  |  |  |  |  |  |  |
| C[C@@H]1C/C=C/C=C/C=C/C=C/[C@H](O[C@@H]2O[C@H](C)[C@@H](O)[C@H](N)[C@@H]2O)C[C@@H]2O[C@](O)(C[C@@H](O)C[C@H]3O[C@@H]3/C=C/C(=O)O1)C[C@H](O)[C@H]2C(=O)O [NATAMYCIN] | Not Active | Not Active | Not Active | Not Active | Not Active | Not Active | Not Active |  |  |  |  |  |  |  |  |  |
| CN(C)C(=O)Oc1cccc([N+](C)(C)C)c1.[Br-] [NEOSTIGMINE BROMIDE] | Not Active | Not Active | Not Active | Not Active | Not Active | Not Active | Not Active |  |  |  |  |  |  |  |  |  |
| NC(=O)c1cccnc1 [NIACINAMIDE] | Not Active | Not Active | Not Active | Not Active | Not Active | Not Active | Not Active |  |  |  |  |  |  |  |  |  |
| CS(=O)(=O)Nc1ccc([N+](=O)[O-])cc1Oc1ccccc1 [NIMESULIDE] | Not Active | Not Active | Not Active | Not Active | Not Active | Not Active | Not Active |  |  |  |  |  |  |  |  |  |
| CN1C(=O)CN=C(c2ccccc2)c2cc([N+](=O)[O-])ccc21 [NIMETAZEPAM] | Not Active | Not Active | Not Active | Not Active | Not Active | Not Active | Not Active |  |  |  |  |  |  |  |  |  |
| COc1ccc2c(c1OC)C(=O)O[C@@H]2[C@H]1c2c(cc3c(c2OC)OCO3)CCN1C [NOSCAPINE] | Not Active | Not Active | Not Active | Not Active | Not Active | Not Active | Not Active |  |  |  |  |  |  |  |  |  |
| C[C@@H]1O[C@@H](O[C@H]2C[C@@H](O)[C@]3(CO)[C@H]4[C@H](O)C[C@]5(C)[C@@H](C6=CC(=O)OC6)CC[C@]5(O)[C@@H]4CC[C@]3(O)C2)[C@H](O)[C@H](O)[C@H]1O [OUABAIN] | Not Active | Not Active | Not Active | Not Active | Not Active | Not Active | Not Active |  |  |  |  |  |  |  |  |  |
| NC(=O)N1c2ccccc2CC(=O)c2ccccc21 [OXCARBAZEPINE] | Not Active | Not Active | Not Active | Not Active | Not Active | Not Active | Not Active |  |  |  |  |  |  |  |  |  |
| COc1ccnc(C[S+]([O-])c2nc3ccc(OC(F)F)cc3[nH]2)c1OC (configuration not stated) [PANTOPRAZOLE] | Not Active | Not Active | Not Active | Not Active | Not Active | Not Active | Not Active |  |  |  |  |  |  |  |  |  |
| N=C(N)c1ccc(OCCCCCOc2ccc(C(=N)N)cc2)cc1 [PENTAMIDINE] | Not Active | Not Active |  | Not Active | Not Active | Not Active | Not Active | 5.80 | 6.66 |  |  |  |  |  |  |  |
| NNCCc1ccccc1 [PHENELZINE] | Not Active | Not Active | Not Active | Not Active | Not Active | Not Active | Not Active |  |  |  |  |  |  |  |  |  |
| CCc1ccc(CCOc2ccc(CC3SC(=O)NC3=O)cc2)nc1 (configuration not stated) [PIOGLITAZONE] | Not Active | Not Active | Not Active | Not Active | Not Active | Not Active | Not Active |  |  |  |  |  |  |  |  |  |
| CCCNC(C)C(=O)Nc1ccccc1C (configuration not stated) [PRILOCAINE] | Not Active | Not Active | Not Active | Not Active | Not Active | Not Active | Not Active |  |  |  |  |  |  |  |  |  |
| CCN(CC)CCNC(=O)c1ccc(N)cc1 [PROCAINAMIDE] | Not Active | Not Active | Not Active | Not Active | Not Active | Not Active | Not Active |  |  |  |  |  |  |  |  |  |
| CCN(CC)CCCC(C)Nc1c2ccc(Cl)cc2nc2ccc(OC)cc12 (configuration not stated) [QUINACRINE] | Not Active | Not Active |  | Not Active | Not Active | Not Active | Not Active | 5.70 | 6.56 |  |  |  |  |  |  |  |
| C[C@]12C=CC(=O)C=C1CC[C@H]1[C@@H]3C[C@@H](O)[C@](O)(C(=O)CO)[C@@]3(C)C[C@H](O)[C@@]12F [TRIAMCINOLONE] | Not Active | Not Active | Not Active | Not Active | Not Active | Not Active | Not Active |  |  |  |  |  |  |  |  |  |
| CC[C@]1(O)C[C@@H]2CN(CCc3c([nH]c4ccccc34)[C@@](C(=O)OC)(c3cc4c(cc3OC)N(C)[C@H]3[C@@](O)(C(N)=O)[C@H](O)[C@]5(CC)C=CCN6CC[C@]43[C@@H]65)C2)C1 [VINDESINE] | Not Active | Not Active | Not Active | Not Active | Not Active | Not Active | Not Active |  |  |  |  |  |  |  |  |  |
| CCN(C(C)=O)c1cccc(-c2ccnc3c(C#N)cnn23)c1 [ZALEPLON] | Not Active | Not Active | Not Active | Not Active | Not Active | Not Active | Not Active |  |  |  |  |  |  |  |  |  |
| COBALTOUS CHLORIDE | Not Active | Not Active | Not Active | Not Active | Not Active | Not Active | Not Active |  |  | Not Active | Not Active | Not Active | Not Active | Not Active | Not Active | Not Active |
